Read-outs that look alike come from different tables or passages of the source.
Tests used:
CCRF-CEM = CCRF-CEM (Leukemia), 48 hours, SRB; for CC50: read-out: LC50
SK-MEL-2 = SK-MEL-2 (Melanoma), 48 hours, SRB; for CC50: read-out: LC50
HCT-116 = HCT-116 (Colon Cancer), 48 hours, SRB; for CC50: read-out: LC50
RPMI-8226 = RPMI-8226 (Leukemia), 48 hours, SRB; for CC50: read-out: LC50
T-47D = T-47D (Breast Cancer), 48 hours, SRB; for CC50: read-out: LC50
SK-MEL-28 = SK-MEL-28 (Melanoma), 48 hours, SRB
786-0 = 786-0 (Renal Cancer), 48 hours, SRB; for CC50: read-out: LC50
K-562 = K-562 (Leukemia), 48 hours, SRB
MCF7 = MCF7 (Breast Cancer), 48 hours, SRB; for CC50: read-out: LC50
UACC-257 = UACC-257 (Melanoma), 48 hours, SRB; for CC50: read-out: LC50
NCI-H460 = NCI-H460 (Non-Small Cell Lung Cancer), 48 hours, SRB; for CC50: read-out: LC50
OVCAR-3 = OVCAR-3 (Ovarian Cancer), 48 hours, SRB; for CC50: read-out: LC50
HCC-2998 = HCC-2998 (Colon Cancer), 48 hours, SRB; for CC50: read-out: LC50
COLO 205 = COLO 205 (Colon Cancer), 48 hours, SRB; for CC50: read-out: LC50
U251 = U251 (CNS Cancer), 48 hours, SRB; for CC50: read-out: LC50
UACC62 = UACC62 (Melanoma), 48 hours, SRB; for CC50: read-out: LC50
UO-31 = UO-31 (Renal Cancer), 48 hours, SRB; for CC50: read-out: LC50
BT-549 = BT-549 (Breast Cancer), 48 hours, SRB; for CC50: read-out: LC50
SK-OV-3 = SK-OV-3 (Ovarian Cancer), 48 hours, SRB; for CC50: read-out: LC50
M14 = M14 (Melanoma), 48 hours, SRB; for CC50: read-out: LC50
NCI-H226 = NCI-H226 (Non-Small Cell Lung Cancer), 48 hours, SRB; for CC50: read-out: LC50
DU-145 = DU-145 (Prostate Cancer), 48 hours, SRB; for CC50: read-out: LC50
MDA-MB-231/ATCC = MDA-MB-231/ATCC (Breast Cancer), 48 hours, SRB; for CC50: read-out: LC50
HOP-62 = HOP-62 (Non-Small Cell Lung Cancer), 48 hours, SRB; for CC50: read-out: LC50
HOP-92 = assay: NCI 60 cell lines, SRB assay: HOP-92; details: HOP-92 (Non-Small Cell Lung Cancer), 48 hours, SRB
[1] = HL-60(TB) (Leukemia), 48 hours, SRB

CN(C)c1cccc2c(S(=O)(=O)NCCCCCCCCCCOc3ccc4c(c3)[N+]([O-])=C3C4=C[C@@]45NC(=O)C6(CCCN6C4=O)CC5C3(C)C)cccc12 (stereo partly drawn) [Dansyl Analogue] gave a GI50 (CCRF-CEM) of 246 nM, a TGI (CCRF-CEM) greater than 100000 nM and a CC50 (CCRF-CEM) greater than 100000 nM. It also gave a GI50 (SK-MEL-2) of 1070 nM, a TGI (SK-MEL-2) of 3230 nM and a CC50 (SK-MEL-2) of 9820 nM. For the same compound, the GI50 (HCT-116) was 349 nM, the TGI (HCT-116) was 1150 nM and the CC50 (HCT-116) was 5980 nM. For the same compound, the GI50 (RPMI-8226) was 282 nM, the TGI (RPMI-8226) was greater than 100000 nM and the CC50 (RPMI-8226) was greater than 100000 nM. For the same compound, the GI50 (T-47D) was 152 nM, the TGI (T-47D) was 572 nM and the CC50 (T-47D) was 3140 nM. For the same compound, the GI50 (SK-MEL-28) was 282 nM, the TGI (SK-MEL-28) was 678 nM and the GI50 (786-0) was 325 nM. The TGI (786-0) was 1070 nM, the CC50 (786-0) was 5210 nM and the TGI (K-562) was 64400 nM. For the same compound, the GI50 (MCF7) was 232 nM, the TGI (MCF7) was 724 nM and the CC50 (MCF7) was 2610 nM. The GI50 (UACC-257) was 1020 nM, the TGI (UACC-257) was 2810 nM and the CC50 (UACC-257) was 7740 nM. The GI50 (NCI-H460) was 700 nM, the TGI (NCI-H460) was 1990 nM and the CC50 (NCI-H460) was 4640 nM. It also gave a GI50 (OVCAR-3) of 201 nM, a TGI (OVCAR-3) of 413 nM and a CC50 (OVCAR-3) of 849 nM. It also gave a GI50 (HCC-2998) of 946 nM, a TGI (HCC-2998) of 2320 nM and a CC50 (HCC-2998) of 5490 nM. It also gave a GI50 (COLO 205) of 328 nM, a TGI (COLO 205) of 1140 nM and a CC50 (COLO 205) of 3860 nM. The GI50 (U251) was 175 nM, the TGI (U251) was 334 nM and the CC50 (U251) was 640 nM. It also gave a GI50 (UACC62) of 565 nM, a TGI (UACC62) of 1880 nM and a CC50 (UACC62) of 4880 nM. It also gave a GI50 (UO-31) of 480 nM, a TGI (UO-31) of 2080 nM and a CC50 (UO-31) of 6480 nM. The GI50 (BT-549) was 515 nM, the TGI (BT-549) was 6730 nM and the CC50 (BT-549) was greater than 100000 nM. The GI50 (SK-OV-3) was 1650 nM, the TGI (SK-OV-3) was 4130 nM and the CC50 (SK-OV-3) was 10800 nM. For the same compound, the GI50 (M14) was 423 nM, the TGI (M14) was 2030 nM and the CC50 (M14) was 13600 nM. The GI50 (HL-60(TB); [1]) was 211 nM, the TGI (HL-60(TB); [1]) was 1160 nM and the CC50 (HL-60(TB); read-out: LC50, HL-60(TB) (Leukemia), 48 hours, SRB) was greater than 100000 nM. It also gave a GI50 (NCI-H226) of 1030 nM, a TGI (NCI-H226) of 3030 nM and a CC50 (NCI-H226) of 8930 nM. For the same compound, the GI50 (DU-145) was 271 nM, the TGI (DU-145) was 706 nM and the CC50 (DU-145) was 2450 nM. The GI50 (MDA-MB-231/ATCC) was 242 nM, the TGI (MDA-MB-231/ATCC) was 584 nM and the CC50 (MDA-MB-231/ATCC) was 40500 nM. It also gave a GI50 (HOP-62) of 2380 nM, a TGI (HOP-62) of 4640 nM and a CC50 (HOP-62) of 9020 nM. For the same compound, the GI50 (HOP-92) was 224 nM, the TGI (HOP-92) was 867 nM and the CC50 (HOP-92; read-out: LC50) was 12700 nM.
Compound CC1(C)C=Cc2c(ccc3c4c(n(O)c23)C(C)(C)C2CC35CCCN3C(=O)C2(NC5=O)C4SCC(NC(=O)CCC(N)C(=O)O)C(=O)NCC(=O)O)O1 (stereo not drawn) [Glutathione Adduct] has a GI50 (CCRF-CEM) of 672 nM, a TGI (CCRF-CEM) of 2030 nM and a CC50 (CCRF-CEM) of 35000 nM. For the same compound, the GI50 (SK-MEL-2) was 877 nM, the TGI (SK-MEL-2) was 2440 nM and the CC50 (SK-MEL-2) was 10900 nM. The GI50 (HCT-116) was 871 nM, the TGI (HCT-116) was 1760 nM and the CC50 (HCT-116) was 3550 nM. For the same compound, the GI50 (RPMI-8226) was 159 nM, the TGI (RPMI-8226) was 1140 nM and the CC50 (RPMI-8226) was greater than 50000 nM. It also gave a GI50 (T-47D) of 319 nM, a TGI (T-47D) of 2470 nM and a CC50 (T-47D) of 46000 nM. It also gave a GI50 (SK-MEL-28) of 985 nM, a TGI (SK-MEL-28) of 1950 nM and a CC50 (SK-MEL-28; read-out: LC50) of 3870 nM. For the same compound, the GI50 (786-0) was 1120 nM, the TGI (786-0) was 2440 nM and the CC50 (786-0) was 6030 nM. It also gave a GI50 (K-562) of 1010 nM, a TGI (K-562) of 4660 nM and a CC50 (K-562; read-out: LC50) greater than 50000 nM. For the same compound, the GI50 (MCF7) was 840 nM, the TGI (MCF7) was 3180 nM and the CC50 (MCF7) was 33600 nM. The GI50 (UACC-257) was 1070 nM, the TGI (UACC-257) was 5430 nM and the CC50 (UACC-257) was 17300 nM. It also gave a GI50 (NCI-H460) of 1110 nM, a TGI (NCI-H460) of 2410 nM and a CC50 (NCI-H460) of 23200 nM. It also gave a GI50 (OVCAR-3) of 735 nM, a TGI (OVCAR-3) of 1520 nM and a CC50 (OVCAR-3) of 3130 nM. The GI50 (HCC-2998) was 759 nM, the TGI (HCC-2998) was 1510 nM and the CC50 (HCC-2998) was 3020 nM. The GI50 (COLO 205) was 649 nM, the TGI (COLO 205) was 15100 nM and the CC50 (COLO 205) was 3510 nM. It also gave a GI50 (U251) of 819 nM, a TGI (U251) of 1970 nM and a CC50 (U251) of 4760 nM. The GI50 (UACC62) was 649 nM, the TGI (UACC62) was 1720 nM and the CC50 (UACC62) was 4560 nM. It also gave a GI50 (UO-31) of 779 nM, a TGI (UO-31) of 4070 nM and a CC50 (UO-31) of 15000 nM. For the same compound, the GI50 (BT-549) was 923 nM, the TGI (BT-549) was 2700 nM and the CC50 (BT-549) was 10500 nM. The GI50 (SK-OV-3) was 1300 nM, the TGI (SK-OV-3) was 5060 nM and the CC50 (SK-OV-3) was 16100 nM. It also gave a GI50 (M14) of 996 nM, a TGI (M14) of 2630 nM and a CC50 (M14) of 11200 nM. The CC50 (HL-60(TB)) was 13300 nM, the GI50 (HL-60(TB)) was 321 nM and the TGI (HL-60(TB)) was 1620 nM. The GI50 (NCI-H226) was 802 nM, the TGI (NCI-H226) was 2290 nM and the CC50 (NCI-H226) was 8330 nM. It also gave a GI50 (DU-145) of 1160 nM, a TGI (DU-145) of 2650 nM and a CC50 (DU-145) of 7880 nM. The GI50 (MDA-MB-231/ATCC) was 931 nM, the TGI (MDA-MB-231/ATCC) was 3680 nM and the CC50 (MDA-MB-231/ATCC) was 14700 nM. For the same compound, the GI50 (HOP-62) was 6670 nM, the TGI (HOP-62) was 1380 nM and the CC50 (HOP-62) was 28600 nM.

From patent US20110105515A1, “TARGETING THE ONCOPROTEIN NUCLEOPHOSMIN” (President and Fellows of Harvard College, priority 2007, published 2011)
